Consider two compounds from ChEMBL document CHEMBL1128114, “Enzymatic resolution and pharmacological activity of the enantiomers of 3,5-dihydroxyphenylglycine, a metabotropic glutamate receptor agonist” (Bioorg Med Chem Lett, 1995).

The target in the test is Metabotropic glutamate receptor. Description: Compound was tested for ability to stimulate metabotropic glutamate receptor (mGluR) mediated phosphoinositide hydrolysis in rat hippocampus. The class given is functional, tissue-based.

SMILES strings stand for the structures.

For the compound `N[C@H](C(=O)O)c1cc(O)cc(O)c1`, the EC50 – broadly, the concentration at which the effect is half-maximal – was 10.9 µM.
In the case of `N[C@@H](C(=O)O)c1cc(O)cc(O)c1` it was 106 µM.
